Data set [1] in a line: refractive index (Na D-line) (dimensionless). The note with it: 298.15 K; 101.33 kPa; Liquid; Standard Abbe refractometry.
For data set [2] the following is noted: 298.15 K; 101.33 kPa; Liquid; Vibrating tube method.

Numbers after ± are expanded uncertainties.

The values that follow come from the NIST ThermoML archive (doi:10.1021/je100940w).

The refractive index is the speed of light in vacuum divided by its phase velocity in the sample. One may read the mass density as mass per unit of volume.

In the case of `CC(=O)CC(C)C` [4-methylpentan-2-one], the refractive index in data set [1] was 1.3936 ± 0.0005. For the same compound, in data set [2], the mass density amounted to 795.94 ± 0.14 kg/m3.

Regarding `CCC(C)O` (stereo not given) [butan-2-ol], the refractive index in data set [1] turned out to be 1.3949 ± 0.0005. Moreover, the mass density in data set [2] was 802.35 ± 0.24 kg/m3.

On to `O` [water], for which, in data set [1], the refractive index was 1.3332 ± 0.0005.
